# Reference: US12655116B2, “Substituted isophthalic acid diamides” (Bayer Aktiengesellschaft, priority 2020, dated 2026)
# Legend:
# ABUTH [1] = assay: Pre-emergence herbicidal action against ABUTH; assay type: in vivo, Abutilon theophrasti; details: Abutilon theophrasti, 504 h; for pest or weed control at 80 g/ha: scored visually after 3 weeks vs untreated controls (100% = plants have died, 0% = like control plants); for pest or weed control at 20 g/ha: dosage 20 g/ha, scored visually after 3 weeks vs untreated controls, 100% = plants have died, 0% = like control plants, read-out: Pre-emergence action against ABUTH (herbicidal activity in percent)
# Summary of the method: (§1)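 Seeds sown in sandy loam, soil-covered; compound sprayed on soil surface pre-emergence. Application: WP/EC, 600–800 l/ha, 0.2% wetting agent. Readout: visual % damage at 3 weeks.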
# ALOMY [2] = assay: Pre-emergence herbicidal action against ALOMY; assay type: in vivo, Alopecurus myosuroides; details: Alopecurus myosuroides, 504 h, pre-emergence; for pest or weed control at 80 g/ha: scored visually after 3 weeks vs untreated controls (100% = plants have died, 0% = like control plants)
# Summary of the method: as §1
# AMARE [3] = assay: Pre-emergence herbicidal action against AMARE; assay type: in vivo, Amaranthus retroflexus; details: Amaranthus retroflexus, 504 h, scored visually after 3 weeks vs untreated controls, 100% = plants have died, 0% = like control plants
# Summary of the method: as §1
# AVEFA = assay: Pre-emergence herbicidal action against AVEFA; assay type: in vivo, Avena fatua; details: Avena fatua, 504 h; 80 g/ha, pre-emergence
# Summary of the method: as §1
# ECHCG [4] = assay: Pre-emergence herbicidal action against ECHCG; assay type: in vivo, Echinochloa crus-galli; details: Echinochloa crus-galli, 504 h
# Summary of the method: as §1
# LOLRI = assay: Pre-emergence herbicidal action against LOLRI; assay type: in vivo, Lolium rigidum; details: Lolium rigidum, 504 h, 80 g/ha
# Summary of the method: as §1
# MATIN [5] = assay: Pre-emergence herbicidal action against MATIN; assay type: in vivo, Matricaria inodora; details: Tripleurospermum inodorum, 504 h; for pest or weed control at 20 g/ha: dosage 20 g/ha; for pest or weed control at 80 g/ha: dosage 80 g/ha
# Summary of the method: as §1
# PHBPU [6] = assay: Pre-emergence herbicidal action against PHBPU; assay type: in vivo, Pharbitis purpurea; details: Ipomoea purpurea, 504 h, dosage 80 g/ha
# Summary of the method: as §1
# POLCO = assay: Pre-emergence herbicidal action against POLCO; assay type: in vivo, Polygonum convolvulus; details: Fallopia convolvulus, 504 h; for pest or weed control at 80 g/ha: dosage 80 g/ha
# Summary of the method: as §1
# SETVI [7] = assay: Pre-emergence herbicidal action against SETVI; assay type: in vivo, Setaria viridis; details: Setaria viridis, 504 h; for pest or weed control at 80 g/ha: dosage 80 g/ha
# Summary of the method: as §1
# VERPE [8] = assay: Pre-emergence herbicidal action against VERPE; assay type: in vivo, Veronica persica; details: Veronica persica, 504 h; for pest or weed control at 80 g/ha: dosage 80 g/ha
# Summary of the method: as §1
# VIOTR [9] = assay: Pre-emergence herbicidal action against VIOTR; assay type: in vivo, Viola tricolor; details: Viola tricolor, 504 h; for pest or weed control at 20 g/ha: dosage 20 g/ha; for pest or weed control at 80 g/ha: dosage 80 g/ha
# Summary of the method: as §1
# DIGSA [10] = assay: Pre-emergence herbicidal action against DIGSA; assay type: in vivo, Digitaria sanguinalis; details: Digitaria sanguinalis, 504 h; for pest or weed control at 80 g/ha: dosage 80 g/ha
# Summary of the method: as §1
# ABUTH [11] = assay: Post-emergence herbicidal action against ABUTH; assay type: in vivo, Abutilon theophrasti; details: Abutilon theophrasti, 504 h, visual assessment about 3 weeks after treatment vs untreated controls; for pest or weed control at 20 g/ha: dosage 20 g/ha
# Summary of the method: (§2)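 Sandy loam, greenhouse; treatment 2–3 weeks after sowing, one-leaf stage. Aqueous suspension or emulsion from WP/EC sprayed on foliage (600–800 l/ha, 0.2% wetting agent). Readout: visual % action, ~3 weeks.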
# ALOMY [12] = assay: Post-emergence herbicidal action against ALOMY; assay type: in vivo, Alopecurus myosuroides; details: Alopecurus myosuroides, 504 h, visual assessment about 3 weeks after treatment vs untreated controls; for pest or weed control at 20 g/ha: dosage 20 g/ha
# Summary of the method: as §2
# AMARE [13] = assay: Post-emergence herbicidal action against AMARE; assay type: in vivo, Amaranthus retroflexus; details: Amaranthus retroflexus, 504 h, 20 g/ha, visual assessment about 3 weeks after treatment, 100% = plants have died, 0% = like control plants
# Summary of the method: as §2
# ECHCG [14] = assay: Post-emergence herbicidal action against ECHCG; assay type: in vivo, Echinochloa crus-galli; details: Echinochloa crus-galli, 504 h; for pest or weed control at 20 g/ha: dosage 20 g/ha
# Summary of the method: as §2
# MATIN [15] = assay: Post-emergence herbicidal action against MATIN; assay type: in vivo, Matricaria inodora; details: Tripleurospermum inodorum, 504 h; for pest or weed control at 5 g/ha: dosage 5 g/ha; for pest or weed control at 20 g/ha: dosage 20 g/ha
# Summary of the method: as §2
# PHBPU [16] = assay: Post-emergence herbicidal action against PHBPU; assay type: in vivo, Pharbitis purpurea; details: Ipomoea purpurea, 504 h; for pest or weed control at 20 g/ha: dosage 20 g/ha
# Summary of the method: as §2
# SETVI [17] = assay: Post-emergence herbicidal action against SETVI; assay type: in vivo, Setaria viridis; details: Setaria viridis, 504 h; for pest or weed control at 5 g/ha: dosage 5 g/ha; for pest or weed control at 20 g/ha: dosage 20 g/ha
# Summary of the method: as §2
# VERPE [18] = assay: Post-emergence herbicidal action against VERPE; assay type: in vivo, Veronica persica; details: Veronica persica, 504 h
# Summary of the method: as §2
# VIOTR [19] = assay: Post-emergence herbicidal action against VIOTR; assay type: in vivo, Viola tricolor; details: Viola tricolor, 504 h, 20 g/ha
# Summary of the method: as §2
# DIGSA [20] = assay: Post-emergence herbicidal action against DIGSA; assay type: in vivo, Digitaria sanguinalis; details: Digitaria sanguinalis, 504 h
# Summary of the method: as §2
SMILES,pest or weed control at 80 g/ha (ABUTH [1]),pest or weed control at 20 g/ha (ABUTH [1]),pest or weed control at 80 g/ha (ALOMY [2]),pest or weed control at 20 g/ha (AMARE [3]),pest or weed control at 80 g/ha (AMARE [3]),pest or weed control at 80 g/ha (AVEFA),pest or weed control at 80 g/ha (ECHCG [4]),pest or weed control at 80 g/ha (LOLRI),pest or weed control at 20 g/ha (MATIN [5]),pest or weed control at 80 g/ha (MATIN [5]),pest or weed control at 80 g/ha (PHBPU [6]),pest or weed control at 80 g/ha (POLCO),pest or weed control at 80 g/ha (SETVI [7]),pest or weed control at 80 g/ha (VERPE [8]),pest or weed control at 20 g/ha (VIOTR [9]),pest or weed control at 80 g/ha (VIOTR [9]),pest or weed control at 80 g/ha (DIGSA [10]),pest or weed control at 20 g/ha (ABUTH [11]),pest or weed control at 20 g/ha (ALOMY [12]),pest or weed control at 20 g/ha (AMARE [13]),also measured
Cc1c(C(=O)Nc2nnnn2C)ccc(C(F)(F)F)c1C(=O)NC(C)C [Example 1-33],100%,90%,100%,100%,100%,100%,100%,80%,100%,100%,100%,90%,100%,100%,100%,100%,100%,90%,90%,100%,pest or weed control at 20 g/ha (DIGSA [10]; dosage 20 g/ha): 100%; pest or weed control at 5 g/ha (ECHCG [14]; dosage 5 g/ha): 80%; pest or weed control at 20 g/ha (ECHCG [14]): 90%; pest or weed control at 5 g/ha (MATIN [15]): 80%; pest or weed control at 20 g/ha (MATIN [15]): 80%; pest or weed control at 20 g/ha (PHBPU [16]): 80%; pest or weed control at 5 g/ha (SETVI [17]): 80%; pest or weed control at 20 g/ha (SETVI [17]): 90%; pest or weed control at 20 g/ha (VERPE [18]): 80%; pest or weed control at 20 g/ha (VIOTR [19]): 80%; pest or weed control at 20 g/ha (DIGSA [20]): 90%
CCNC(=O)c1c(C(F)(F)C(F)(F)F)ccc(C(=O)Nc2nnnn2C)c1Cl [Example 1-166],100%,90%,100%,100%,100%,100%,100%,80%,100%,100%,80%,100%,100%,100%,100%,100%,90%,90%,90%,90%,"pest or weed control at 20 g/ha (ALOMY [2]; 20 g/ha, scored visually after 3 weeks, 100% = plants have died, 0% = like control plants): 90%; pest or weed control at 20 g/ha (ECHCG [4]; 20 g/ha): 90%; pest or weed control at 20 g/ha (POLCO; dosage 20 g/ha): 100%; pest or weed control at 20 g/ha (SETVI [7]; dosage 20 g/ha): 80%; pest or weed control at 20 g/ha (VERPE [8]; dosage 20 g/ha): 80%; pest or weed control at 5 g/ha (ABUTH [11]; dosage 5 g/ha): 90%; pest or weed control at 5 g/ha (ALOMY [12]; dosage 5 g/ha): 80%; pest or weed control at 20 g/ha (ECHCG [14]): 90%; pest or weed control at 5 g/ha (MATIN [15]): 80%; pest or weed control at 20 g/ha (MATIN [15]): 80%; pest or weed control at 5 g/ha (PHBPU [16]; dosage 5 g/ha): 80%; pest or weed control at 20 g/ha (PHBPU [16]): 90%; pest or weed control at 5 g/ha (SETVI [17]): 90%; pest or weed control at 20 g/ha (SETVI [17]): 90%; pest or weed control at 5 g/ha (VERPE [18]; 5 g/ha): 80%; pest or weed control at 20 g/ha (VERPE [18]): 90%; pest or weed control at 20 g/ha (VIOTR [19]): 80%; pest or weed control at 5 g/ha (DIGSA [20]; 5 g/ha): 90%; pest or weed control at 20 g/ha (DIGSA [20]): 90%"
